This is an account of results in ChEMBL document CHEMBL3351890, “Azapropellanes with anti-influenza a virus activity” (ACS Med Chem Lett, 2014).

Assay [1] has as its system Matrix protein 2 (Influenza A virus), P06821 [withheld]. Put plainly: Inhibition of influenza A virus wild type M2 proton channel S31N mutant expressed in Xenopus oocytes at 100 uM by two-electrode voltage clamp analysis. Type of assay: cell-based.
The subject of assay [2] is Matrix protein 2 (Influenza A virus), P06821 [V27A]. In words: Inhibition of influenza A virus wild type M2 proton channel V27A mutant expressed in Xenopus oocytes at 100 uM by two-electrode voltage clamp analysis. Type of assay: cell-based.

The structures appear in SMILES notation. Calls of active or inactive are those of the source. No cut-off for these calls is given here.

As to `CC1CC23CNCC2(C1)CC(C)C3` (centres undefined), the inhibition result in assay [1] and in assay [2] was “inactive” throughout.
Take `C=C1CC23CC=CCC2(CNC3)C1` (centres undefined): the inhibition result in assay [1] and in assay [2] was “inactive” in each case.
Take `CC1CC23CC(C)CC2(C1)CN(C(=N)N)C3` (centres undefined): the inhibition entry in assay [1] and in assay [2] was “inactive” throughout.
As to `C1=CC[C@]23CCCC[C@@]2(C1)CNC3`, the inhibition result in assay [1] and in assay [2] was “inactive” each time.
Take `C=C1CC23CCCC2(CNC3)C1` (centres undefined): the inhibition result in assay [1] and in assay [2] was “inactive” in each case.
Take `C1CC23CCCC2(C1)CNC3` (centres undefined): the inhibition entry in assay [1] and in assay [2] was “inactive” throughout.
Consider `C=C1CC23CNCC2(C1)CC(=C)C3` (centres undefined), for which the inhibition entry in assay [1] and in assay [2] was “inactive” in each case.
